Laboratory results from publication PMC12543283, “TastepepAI: An artificial intelligence platform for taste peptide de novo design” (PLOS Computational Biology, 2025).
Ends that are not written are not given here.

Columns and labels:
[1] = tested on: human bronchial epithelial cells (BEAS-2B)
[2] = tested on: human umbilical vein endothelial cells (HUVEC)
[3] = tested on: human embryonic kidney cells (HEK293T)
Procedure: The cytotoxicity of 73 synthetic peptides was evaluated using four human cell lines: human pancreatic ductal epithelial cells (HPNE), human embryonic kidney cells (HEK293T), human umbilical vein endothelial cells (HUVEC), and human bronchial epithelial cells (BEAS-2B). When cell density reached 70% confluence, the complete culture medium was replaced with serum-free maintenance medium, and peptides were added at a final concentration of 100 μM for 36 h. Control groups received only serum-free maintenance medium without peptides. Cell proliferation was assessed using the CCK-8 assay kit (Solarbio, CA1210) according to the manufacturer’s instructions.

[4] = tested on: human pancreatic ductal epithelial cells (HPNE)
[5] = Electronic tongue analysis (Taste-Sensing System SA 402B); set-up: unit not given here; conditions: reference solution 30 mM KCl + 0.3 mM tartaric acid as baseline, first measurement excluded; for Umami: sensor AAE; for Umami / Bitter / Sweet: detection threshold 0, room temperature; for Umami / Bitter / Sour / Salty: four replicates; for Sour: detection threshold -13, room temperature; for Salty: detection threshold -6, room temperature; for Sweet: measured five times
Procedure: Taste characteristics were analyzed using the electronic tongue system E-tongue (Taste-Sensing System SA 402B, Intelligent Sensor Technology Co. Ltd., Japan). The system was equipped with five specific sensor probes for detecting sourness (CA0), saltiness (CT0), bitterness (C00), sweetness (GL1), and umami (AAE). Samples were tested at concentrations of 0.1 mg/mL and 1.0 mg/mL. Prior to experiments, sensors were activated by immersion in a reference solution (30 mM KCl and 0.3 mM tartaric acid) for 24 h. A 30 min self-diagnostic procedure was performed before each measurement to ensure data accuracy. The reference solution served both as a cleaning solution and standard solution for taste signal calibration. According to the manufacturer’s instructions, using the reference solution as baseline, the detection thresholds were set at −13 for sourness, −6 for saltiness, and 0 for other taste modalities. Two cleaning solutions were employed for electrode maintenance: (1) 30% ethanol solution containing 100 mM HCl for negative charge reference electrodes, and (2) 30% ethanol solution containing 100 mM KCl and 10 mM KOH for positive charge reference electrodes. All taste measurements were performed at room temperature with four replicates, except for sweetness which was measured five times. The first measurement data were excluded from analysis.

Substance	Average cell viability, BEAS-2B [1]	Cell viability, BEAS-2B, Data1 [1]	Cell viability, BEAS-2B, Data2 [1]	Cell viability, BEAS-2B, Data3 [1]	Average cell viability, HUVEC [2]	Cell viability, HUVEC, Data1 [2]	Cell viability, HUVEC, Data2 [2]	Cell viability, HUVEC, Data3 [2]	Average cell viability, HEK293T [3]	Cell viability, HEK293T, Data1 [3]	Cell viability, HEK293T, Data2 [3]	Cell viability, HEK293T, Data3 [3]	Average cell viability, HPNE [4]	Cell viability, HPNE, Data1 [4]	Cell viability, HPNE, Data2 [4]	Cell viability, HPNE, Data3 [4]	Umami ([5]; peptide 0.1 mg/mL)	Umami ([5]; peptide 1 mg/mL)	Bitter ([5]; sensor C00, peptide 0.1 mg/mL)	Bitter ([5]; sensor C00, peptide 1 mg/mL)	also measured
AWDGQ [TaPep73]	106.58	95.61	116.85	107.28	105.51	111.28	115.27	89.97	106.97	104.20	108.17	108.55	107.55	109.82	117.40	95.44	0.77	-5.41	7.64	4.33	Sour ([5]; sensor CA0, peptide 0.1 mg/mL): -1.22; Sour ([5]; sensor CA0, peptide 1 mg/mL): 13.38; Salty ([5]; sensor CT0, peptide 0.1 mg/mL): -19.69; Salty ([5]; sensor CT0, peptide 1 mg/mL): 8.78; Sweet ([5]; sensor GL1, peptide 0.1 mg/mL): 4.76; Sweet ([5]; sensor GL1, peptide 1 mg/mL): -5.09
DAAEK [TaPep2]	107.18	116.05	111.86	93.62	95.40	97.15	96.19	92.84	92.18	95.02	84.13	97.38	105.52	116.01	111.51	89.05	1.21	-4.05	7.88	2.74	Sour ([5]; sensor CA0, peptide 0.1 mg/mL): -2.30; Sour ([5]; sensor CA0, peptide 1 mg/mL): 12.60; Salty ([5]; sensor CT0, peptide 0.1 mg/mL): -19.03; Salty ([5]; sensor CT0, peptide 1 mg/mL): 13.52; Sweet ([5]; sensor GL1, peptide 0.1 mg/mL): 6.09; Sweet ([5]; sensor GL1, peptide 1 mg/mL): -5.50
DAELDK [TaPep34]	99.04	114.56	90.63	91.92	96.25	90.61	95.80	102.34	101.89	98.04	102.49	105.14	103.89	99.83	96.64	115.21	0.43	-4.87	7.62	3.25	Sour ([5]; sensor CA0, peptide 0.1 mg/mL): -0.52; Sour ([5]; sensor CA0, peptide 1 mg/mL): 15.34; Salty ([5]; sensor CT0, peptide 0.1 mg/mL): -17.51; Salty ([5]; sensor CT0, peptide 1 mg/mL): 13.63; Sweet ([5]; sensor GL1, peptide 0.1 mg/mL): 5.08; Sweet ([5]; sensor GL1, peptide 1 mg/mL): -6.74
DFKEELPK [TaPep42]	106.12	95.21	103.99	119.14	100.96	109.77	97.95	95.16	100.35	101.45	95.30	104.29	106.29	109.92	101.63	107.32	0.30	-6.40	7.41	2.96	Sour ([5]; sensor CA0, peptide 0.1 mg/mL): -0.03; Sour ([5]; sensor CA0, peptide 1 mg/mL): 16.30; Salty ([5]; sensor CT0, peptide 0.1 mg/mL): -15.26; Salty ([5]; sensor CT0, peptide 1 mg/mL): 15.72; Sweet ([5]; sensor GL1, peptide 0.1 mg/mL): 3.04; Sweet ([5]; sensor GL1, peptide 1 mg/mL): -6.66
DQEPVE [TaPep44]	101.53	108.18	97.51	98.90	109.31	108.41	112.00	107.53	102.43	105.71	98.14	103.44	105.06	112.51	118.30	84.36	0.51	-6.35	7.74	3.13	Sour ([5]; sensor CA0, peptide 0.1 mg/mL): -0.62; Sour ([5]; sensor CA0, peptide 1 mg/mL): 14.96; Salty ([5]; sensor CT0, peptide 0.1 mg/mL): -19.30; Salty ([5]; sensor CT0, peptide 1 mg/mL): 10.03; Sweet ([5]; sensor GL1, peptide 0.1 mg/mL): 3.94; Sweet ([5]; sensor GL1, peptide 1 mg/mL): -11.10
DQKVLA [TaPep3]	108.77	109.77	102.49	114.06	98.83	114.40	89.41	92.68	94.20	93.79	84.04	104.76	93.24	97.04	98.74	83.96	2.16	-4.90	7.84	2.95	Sour ([5]; sensor CA0, peptide 0.1 mg/mL): -4.64; Sour ([5]; sensor CA0, peptide 1 mg/mL): 12.21; Salty ([5]; sensor CT0, peptide 0.1 mg/mL): -20.13; Salty ([5]; sensor CT0, peptide 1 mg/mL): 13.20; Sweet ([5]; sensor GL1, peptide 0.1 mg/mL): 7.95; Sweet ([5]; sensor GL1, peptide 1 mg/mL): -6.65
EDGPHGD [TaPep45]	94.75	89.83	99.50	94.92	98.64	103.46	90.77	101.70	97.35	98.99	96.25	96.81	101.66	107.42	100.73	96.84	0.96	-5.11	7.77	4.03	Sour ([5]; sensor CA0, peptide 0.1 mg/mL): -1.77; Sour ([5]; sensor CA0, peptide 1 mg/mL): 12.61; Salty ([5]; sensor CT0, peptide 0.1 mg/mL): -19.03; Salty ([5]; sensor CT0, peptide 1 mg/mL): 9.35; Sweet ([5]; sensor GL1, peptide 0.1 mg/mL): 4.54; Sweet ([5]; sensor GL1, peptide 1 mg/mL): -4.05
EEVPITD [TaPep46]	111.37	117.25	103.29	113.56	101.12	105.61	97.55	100.19	100.85	99.94	100.60	102.02	104.39	107.62	107.82	97.74	1.60	-4.41	7.55	4.18	Sour ([5]; sensor CA0, peptide 0.1 mg/mL): -3.21; Sour ([5]; sensor CA0, peptide 1 mg/mL): 10.78; Salty ([5]; sensor CT0, peptide 0.1 mg/mL): -21.33; Salty ([5]; sensor CT0, peptide 1 mg/mL): 4.55; Sweet ([5]; sensor GL1, peptide 0.1 mg/mL): 6.32; Sweet ([5]; sensor GL1, peptide 1 mg/mL): -3.59
